Test results: patent US4518613A, “Thioalkanoyl-carnitines, process for their preparation and mucolytic pharmaceutical compositions containing same” (priority 1981, dated 1985)

Legend:
[1] = Acute toxicity, LD50 by the Weil method, e.p. administration in mouse; details: in vivo, ip, Weil method N = 4, K = 4
From the text: LD50 of the compounds of general formula (I) assessed with the Weil method ("Tables for convenient calculation of median effective dose (LD50 or ED50) and instructions in their use", Biometrics, 249-253, 1952), by e.p. administration in mouse is shown in Table 1.
LD50 and fiducial limits, mg/Kg e.p., of the compounds of for-
mula (I). Weil method N = 4, K = 4.

[2] = tested on: bronchial secretion; experiment: Expectorant activity: bronchial secretion in anesthetized rabbits (method of Perry et al.); format: in vivo; details: oral, rabbit, 20 to 40 mg
Experimental: The tests were carried out on male rabbits, weighing 2-3 Kg, anesthetized with ethyl urethane, by following the method disclosed by Perry et al. (J. Pharm. Exp. Ther. 73, 65, 1941).
Each cannula was connected to a feeding device which delivered a steady flow-rate of pre-heated air (36°-38° C.) at constant humidity (80%). At the lower end of each cannula, a graduated cylinder was fitted, wherein the bronchial secretion was collected. All of the animals breathed spontaneously and consequently they self-regulated the air intake suitable for normal respiration. After an hour following cannula insertion, the animals were administered oraly (by stomach tube) the compounds of general formula (I) dissolved in distilled water at doses comprised between 20 and 40 mg. […] The control animals (8) were given water only. The amount of secretion was determined after 1, 2 and 4 hours from administration.

[3] = Mucolytic activity in vitro: modification of human sputum density by thromboelastograph (method of Morandini et al.)
Experimental: The tests were carried out in vitro by using the method disclosed by Morandini et al. (Lotta contro la tubercolosi 47, n. 4, 1977). A thromboelastograph was used to follow the variations induced by the compounds of general formula (I) and acetylcysteine on the rheological properties of human sputum.

## CC(=O)SCCCCC(=O)OC(CC(=O)O)C[N+](C)(C)C (centres unmarked) [ST-412, 5-thioacetyl pentanoyl-carnitine]
[1]
  LD50: 1540 mg/kg
[2]; 1 hour after administration
  Percentage variations ± s.e. of bronchial secretion versus basal values: +1.3 ± 0.04 Percentage
[2]; 2 hours after administration
  Percentage variations ± s.e. of bronchial secretion versus basal values: +2.1 ± 0.05 Percentage
[2]; 4 hours after administration
  Percentage variations ± s.e. of bronchial secretion versus basal values: +3.1 ± 0.03 Percentage

## CC(=O)SC(C)CC(=O)OC(CC(=O)O)C[N+](C)(C)C (centres unmarked) [ST-406, 3-thioacetyl butyryl carnitine]
[1]
  LD50: 97 mg/kg
[2]; 1 hour after administration
  Percentage variations ± s.e. of bronchial secretion versus basal values: +1.4 ± 0.05 Percentage
[2]; 2 hours after administration
  Percentage variations ± s.e. of bronchial secretion versus basal values: +1.9 ± 0.05 Percentage
[2]; 4 hours after administration
  Percentage variations ± s.e. of bronchial secretion versus basal values: +3.4 ± 0.04 Percentage

## CC(=O)SCCC(=O)OC(CC(=O)O)C[N+](C)(C)C (centres unmarked) [ST-405, 3-thioacetyl propionyl-carnitine]
[1]
  LD50: 378 mg/kg
[2]; 1 hour after administration
  Percentage variations ± s.e. of bronchial secretion versus basal values: +1.1 ± 0.03 Percentage
[2]; 2 hours after administration
  Percentage variations ± s.e. of bronchial secretion versus basal values: +1.9 ± 0.04 Percentage
[2]; 4 hours after administration
  Percentage variations ± s.e. of bronchial secretion versus basal values: +3.6 ± 0.05 Percentage

## CC(=O)N[C@@H](CS)C(=O)O [Acetylcysteine, acetylcysteine]
[3]; after addition of 1 ml of a 10% solution at dilution 1/30
  Percentage drop of the tracing versus maximum peak (mucolytic activity index): 84 Percentage
[3]; after addition of 1 ml of a 10% solution at dilution 1/60
  Percentage drop of the tracing versus maximum peak (mucolytic activity index): 55 Percentage
